Read-outs that look alike come from different tables or passages of the source.
What was measured:
[1] = tested on: MX-1 human breast carcinoma cell line (BR+); test: In vitro cytotoxicity, standard MTT assay, MX-1 cells; type: cell-based
Experimental: (§1) Cell Culture. All cell lines were obtained from ATCC unless otherwise noted. Cells were cultured in RPMI-1640 cell culture medium (Gibco) or DMEM (Gibco), both supplemented with 5% (v/v) heat-inactivated fetal bovine serum (FBS), 5% (v/v) NuSerum, and 1% (v/v) penicillin and streptomycin (PenStrep) at 37° C. in a humidified atmosphere with 5% CO2. MX-1 and ID8 (obtained from University of Kansas Medical Center) cells were cultured as monolayers on 100 mm tissue culture dishes in supplemented RPMI-1640. L1210 and L1210FR (a gift from Dr. Gregory Russell-Jones, Access Pharmaceuticals Pty Ltd., Australia) were grown as a suspension in supplemented RPMI-1640, and WI-38 as a monolayer in supplemented DMEM. Cells were harvested, collected by centrifugation at 850 rpm for 5 min, and resuspended in fresh culture medium. Cell cultures were routinely divided by treatment with trypsin (TrypLE, Gibco) as needed every 2-4 days and collected by centrifugation at 850 rpm for 5 min, and resuspended in fresh cell culture medium, containing varying cell densities for subsequent biological experiments and analysis.
(§2) In Vitro Cytotoxicity Assays. […] Cells were harvested, collected, and resuspended in 100 μL cell culture medium at concentrations ranging from 0.5-1.5×10^4 cells per well in a 96-well plate. For adhesive cell types, cells were allowed to descend to the bottom of the wells overnight, and fresh medium was added to each well upon removal of the old medium.
(§3) For the MTT assay (Table 1 and the Assay 1 in Table 2) of paclitaxel, taxoid 3 and conjugates 1 and 15, cells were resuspended in 200 μL medium with 8,000 to 10,000 cells per well of a 96-well plate and incubated at 37° C. for 24 h before drug treatment. In DMSO stock solutions, each drug or conjugate was diluted to a series of concentrations in cell culture medium to prepare test solutions. After removing the old medium, these test solutions were added to the wells in the 96-well plate to give the final concentrations ranging from 0.5 to 5,000 nM (100 μL), and the cells were subsequently cultured at 37° C. for 48 h (Table 1) or 72 h (Table 2, Assay 1). For the leukemia cell lines, L1210 and L1210FR, cells were harvested, collected, and resuspended in the test solutions ranging from 0.5 to 5,000 nM (100 μL) at 0.5 to 0.8 ×10^4 cells per well in a 96-well plate and subsequently incubated at 37° C. for 48 h (Table 1) or 72 h (Table 2, Assay 1).
(§4) In the Assay 2 (Table 2), cells were incubated with 1 or 15 at 37° C. for 24 h, and the drug medium was removed. Then, treated cells were thoroughly washed with PBS, and GSH-OEt (6 equiv. to conjugate) in cell culture medium (200 μL) was added to the wells. These cells were incubated at 37° C. for an additional 48 h, i.e., the total incubation time was 72 h.
(§5) In the Assay 3 (Table 2), cells were incubated with 1 or 15 at 37° C. for 24 h, and GSH-OEt (6 equivalents) in cell culture medium (100 μL) was directly added to the wells. These cells were incubated at 37° C. for an additional 48 h, i.e. the total incubation time was also 72 h.
(§6) For all experiments, after removing the test medium, fresh solution of MTT in PBS (40 μL of 0.5 mg MTT/mL) was added to the wells, and the cells were incubated at 37° C. for 3 h. The MTT solution was then removed, and the resulting insoluble violet formazan crystals were dissolved in 0.1 N HCl in isopropanol with 10% Triton X-100 (40 μL) to give a violet solution. The spectrophotometric absorbance measurement of each well in the 96-well plate was run at 570 nm using a Labsystems Multiskan Ascent microplate reader. The IC50 values and their standard errors were calculated from the viability-concentration curve using Four Parameter Logistic Model of Sigmaplot. The concentration of DMSO per well was ≤1% in all cases. Each experiment was run in triplicate.

[2] = tested on: ID8 murine ovarian carcinoma cell line (BR+); test: In vitro cytotoxicity, standard MTT assay, ID8 cells; type: cell-based
Experimental: as §1, §2
as §3, with “After removing the old medium, these test solutions were added to the wells in the 96-well plate to give the final concentrations ranging from 0.5 to 5,000 nM (100 μL), and the cells were subsequently cultured at 37° C. for 48 h (Table 1) or 72 h (Table 2, Assay 1).” left out
as §6

[3] = tested on: L1210FR murine lymphocytic leukemia cell line (BR+); test: In vitro cytotoxicity, standard MTT assay, L1210FR cells; type: cell-based
Experimental: as §1, §2, §3, §4, §5, §6

[4] = tested on: L1210 murine lymphocytic leukemia cell line (BR−); test: In vitro cytotoxicity, standard MTT assay, L1210 cells; type: cell-based
Experimental: as §1, §2, §3, §6

[5] = In vitro cytotoxicity, standard MTT assay, WI38 cells; type: cell-based, human; settings: human; for IC50 at 48 h: incubation at 37° C. for 48 h
Experimental: as §1, §2, §3, §4, §5, §6

[6] = tested on: BR+ cancer cell lines (L1210FR, MX-1, ID8); test: MTT cytotoxicity summarised over BR+ cancer cell lines; type: cell-based; settings: for Cancer cell selectivity (BR-specificity), BR+ cancer cells vs BR− WI38 cells: Assay 2
Experimental: as §2, §3, §4, §5, §6
Thus, the Assay 1 results provide the potency of conjugates in the same manner as that for the first assay summarized in Table 1, but for longer incubation time (48 h vs. 72 h). […] Accordingly, this assay may mimic the corresponding in vivo assay conditions, wherein non-internalized conjugates would be removed from the tumor, redistributed and eventually excreted. […] Thus, in principle, the results (IC50 values) in this assay should be very close to those for the control using taxoid 3 (entry 2).

[7] = tested on: WI38 human lung fibroblast cell line (BR−); test: In vitro cytotoxicity, standard MTT assay, WI38 cells; type: cell-based; settings: 72 h drug incubation; read-out: IC50, WI38 (normal lung)
Experimental: as §1, §2, §3, §4, §5, §6

MCF-7 (breast) = test: In vitro cytotoxicity, standard MTT assay, MCF-7 cells; type: cell-based; settings: 72 h drug incubation
Experimental: as §2
For the MTT assay (Table 1 and the Assay 1 in Table 2) of paclitaxel, taxoid 3 and conjugates 1 and 15, cells were resuspended in 200 μL medium with 8,000 to 10,000 cells per well of a 96-well plate and incubated at 37° C. for 24 h before drug treatment. In DMSO stock solutions, each drug or conjugate was diluted to a series of concentrations in cell culture medium to prepare test solutions. […]
For all experiments, after removing the test medium, fresh solution of MTT in PBS (40 μL of 0.5 mg MTT/mL) was added to the wells, and the cells were incubated at 37° C. for 3 h. […] The spectrophotometric absorbance measurement of each well in the 96-well plate was run at 570 nm using a Labsystems Multiskan Ascent microplate reader. The IC50 values and their standard errors were calculated from the viability-concentration curve using Four Parameter Logistic Model of Sigmaplot. […]

[8] = tested on: L1210FR murine lymphocytic leukemia cell line (BR+); test: In vitro cytotoxicity, standard MTT assay, L1210FR cells; type: cell-based; settings: 24 hour incubation; read-out: IC50, L1210 FR (leuk.)
[9] = tested on: WI38 human lung fibroblast cell line (BR−); test: In vitro cytotoxicity, standard MTT assay, WI38 cells; type: cell-based; settings: 24 hour incubation; read-out: IC50, WI38 (normal lung)
[10] = Homo sapiens, Breast carcinoma cell, 48 h, read-out: Cytotoxicity IC50, MX-1
[11] = Homo sapiens, Breast carcinoma cell, 72 h, read-out: Cytotoxicity IC50, MX-1, Assay 1
[12] = Homo sapiens, Breast carcinoma cell, read-out: Cytotoxicity IC50, MX-1, Assay 2
[13] = Homo sapiens, Breast carcinoma cell, read-out: Cytotoxicity IC50, MX-1, Assay 3
[14] = Mus musculus, Ovarian carcinoma cell, 48 h, read-out: Cytotoxicity IC50, ID8
[15] = Mus musculus, 48 h, read-out: Cytotoxicity IC50, L1210FR
[16] = Mus musculus, 72 h, read-out: Cytotoxicity IC50, L1210FR, Assay 1
[17] = Mus musculus, read-out: Cytotoxicity IC50, L1210FR, Assay 2
[18] = Mus musculus, read-out: Cytotoxicity IC50, L1210FR, Assay 3
[19] = Mus musculus, L1210, 48 h, read-out: Cytotoxicity IC50, L1210
[20] = 24 h incubation, PBS wash, then GSH-OEt (6 equiv.) and additional 48 h, read-out: Cytotoxicity IC50, WI38, Assay 2
[21] = 24 h incubation, then GSH-OEt (6 equiv.) added without washing, additional 48 h, read-out: Cytotoxicity IC50, WI38, Assay 3
[22] = 72 h incubation, no GSH-OEt, read-out: Cytotoxicity IC50, WI38, Assay 1
[23] = 24 h, PBS wash, GSH-OEt, additional 48 h, range over conjugates 1 and 15, read-out: IC50 range against BR+ cancer cells (MX-1, L1210FR), Assay 2
[24] = GSH-OEt added after 24 h without PBS washing, additional 48 h, range over conjugates 1 and 15, read-out: IC50 range against MX-1 and L1210FR, third assay (Assay 3)

Row | SMILES | IC50 [1, 10] | IC50 [1, 11] | IC50 [1, 12] | IC50 [1, 13] | IC50 [2, 14] | IC50 [3, 15] | IC50 [3, 16] | IC50 [3, 17] | IC50 [3, 18] | IC50 [4, 19] | IC50 at 72 h [5, 20] | IC50 at 72 h [5, 21] | IC50 at 72 h [5, 22] | IC50 at 48 h [5] | IC50 [6, 23] | Cancer cell selectivity (BR-specificity), BR+ cancer cells vs BR− WI38 cells [6] | IC50 [6, 24] | further results
1 | CC(=O)O[C@@]12CO[C@@H]1C[C@H](O)[C@@]1(C)C(=O)[C@H](OC(=O)C3CC3)C3=C(C)[C@@H](OC(=O)[C@H](OC(=O)Cc4ccccc4SSC(C)C(=O)NCCNc4nc(NCCOCCOCCOCCNC(=O)CCCC[C@@H]5SC[C@@H]6NC(=O)N[C@@H]65)nc(NCc5cn(CCOCCOCCOCCF)nn5)n4)[C@H](C=C(C)C)NC(=O)OC(C)(C)C)C[C@@](O)([C@@H](OC(=O)c4ccccc4)[C@H]21)C3(C)C (stereo partly drawn) [Conjugate 1] | 21.2 ± 4.6 nM | 6.27 ± 2.06 nM | 4.79 ± 0.12 nM | 2.56 ± 0.15 nM | 6.62 ± 0.86 nM | 14.7 ± 4 nM | 10.2 ± 3 nM | 6.6 ± 3.96 nM | 2.79 ± 1.43 nM | 593 nM | 615 ± 97 nM | 12.9 ± 4.3 nM | 682 ± 110 nM | 709 nM | 3.85 to 6.6 nM | two-orders of magnitude difference | 2.4 to 2.92 nM | IC50 ([6]; 48 h, read-out: Cytotoxicity IC50, range over L1210FR, MX-1 and ID8): 6 to 21 nM
2 | CC(=O)O[C@@]12CO[C@@H]1C[C@H](O)[C@@]1(C)C(=O)[C@H](OC(=O)C3CC3)C3=C(C)[C@@H](OC(=O)[C@H](OC(=O)Cc4ccccc4SSC(C)CCC(=O)NNC(=O)CCCC[C@@H]4SC[C@@H]5NC(=O)N[C@@H]54)[C@H](C=C(C)C)NC(=O)OC(C)(C)C)C[C@@](O)([C@@H](OC(=O)c4ccccc4)[C@H]21)C3(C)C (stereo partly drawn) [Conjugate 15, Biotin-(SS-Linker)-SB-T-1214] | 15.4 ± 4.2 nM | 4.66 ± 0.87 nM | 3.85 ± 0.14 nM | 2.4 ± 0.18 nM | 4.32 ± 1.58 nM | 13.4 ± 6.8 nM | 12.3 ± 2.8 nM | 5.15 ± 2.85 nM | 2.92 ± 2.34 nM | 481 ± 34 nM | 590 ± 164 nM | 11 ± 3.1 nM | 645 ± 97 nM | 670 ± 89 nM | 3.85 to 6.6 nM | two-orders of magnitude difference | 2.4 to 2.92 nM | –
3 | CC[C@@]1(OC(=O)Cc2ccccc2SSC(C)CCC(=O)NCCOCCOCCOCCn2cc(CNc3nc(NCCNC(=O)CCC(C)SSc4ccccc4CC(=O)O[C@@H](C(=O)O[C@H]4C[C@@]5(O)[C@@H](OC(=O)c6ccccc6)[C@@H]6[C@]7(OC(C)=O)CO[C@@H]7C[C@H](O)[C@@]6(C)C(=O)[C@H](OC(=O)C6CC6)C(=C4C)C5(C)C)[C@H](C=C(C)C)NC(=O)OC(C)(C)C)nc(NCCOCCOCCOCCNC(=O)CCCC[C@@H]4SC[C@@H]5NC(=O)N[C@@H]54)n3)nn2)C(=O)OCc2c1cc1n(c2=O)Cc2cc3ccccc3nc2-1 (stereo partly drawn) [Compound 116] | – | – | – | – | – | – | – | – | – | – | – | – | – | – | – | – | – | IC50 ([1]; 24 hour incubation, read-out: IC50, MX-1 (breast)): 9.8 nM; IC50 ([1]; 72 h drug incubation, read-out: IC50, MX-1 (breast)): 51.7 nM; IC50 ([2]; 24 hour incubation, read-out: IC50, ID8 (ovarian)): 5.66 nM; IC50 ([2]; 72 h drug incubation, read-out: IC50, ID8 (ovarian)): 23.4 nM; IC50 ([3]; 72 h drug incubation, read-out: IC50, L1210FR (leuk.)): 39.1 nM; IC50 ([4]; 72 h drug incubation, read-out: IC50, L1210 (leuk.)): 690 nM; IC50 [7]: 742 nM; IC50 (MCF-7 (breast)): 19 nM; IC50 [8]: 7.4 nM; IC50 [9]: 705 nM

Source: patent US10280183B2, “Therapeutic agent for treating tumors” (THE RESEARCH FOUNDATION FOR THE STATE UNIVERSITY OF NEW YORK, priority 2014, dated 2019)
